Reference: article PMC8308870 (2021)

Assays:
[1] = test system: h-Telo (CD) (DNA, G4) GGGTTAGGGTTAGGGTTAGGG; test: CD titration; settings: 10 mM K+, 90 mM LiCl, 20 mM lithium cacodylate, 20 °C, 10 µM DNA, 0–25 eq
[2] = test system: h-Telo (FRET) (DNA, G4) GGGTTAGGGTTAGGGTTAGGG; test: FRET melting; settings: 60 mM K+, pH 7.4, 0.2 µM DNA
[3] = test system: h-Telo (CD) (DNA, G4) GGGTTAGGGTTAGGGTTAGGG; test: CD melting (290 nm); settings: 10 mM K+, 90 mM LiCl; 20 mM lithium cacodylate, pH 7.2; 10 µM DNA; compound 5 eq
[4] = test system: k-RAS (CD) (DNA, G4) AGGGCGGTGTGGGAAGAGGGA; test: CD titration; settings: 50 mM K+, 50 mM LiCl; 20 mM lithium cacodylate, 20 °C; 10 µM DNA, 0–25 eq; ellipticity decrease, 295 nm band
[5] = test system: k-RAS (FRET) (DNA, G4) AGGGCGGTGTGGGAAGAGGGA; test: FRET melting; settings: 60 mM K+, pH 7.4, 0.2 µM DNA
[6] = test system: Pu27mut (DNA, G4) TGGGGAGGGTGGAAAGGGTGGGGAAGG; test: CD titration; settings: 10 mM K+, 2 mM Mg2+, 10 mM (NH4)2SO4; ThermoPol buffer (20 mM Tris-HCl, 0.1% Triton X-100), pH 8.8; parallel G4 induced
[7] = test system: T-Loop (t-Loop) (DNA, hairpin) TATAGCTATATTTTTTTATAGCTATA; test: FRET melting; settings: 60 mM K+, potassium cacodylate, pH 7.4, 0.2 µM DNA
[8] = test system: c-MYC (Pu27) (DNA, G4) TGGGGAGGGTGGGGAGGGTGGGGAAGG; test: CD melting (265 nm); settings: 100 mM LiCl, no K+ listed; 20 mM lithium cacodylate, pH 7.2; 10 µM DNA; compound 5 eq
[9] = test system: k-RAS (CD) (DNA, G4) AGGGCGGTGTGGGAAGAGGGA; test: CD melting (265 nm); settings: 50 mM K+, 50 mM LiCl; 20 mM lithium cacodylate, pH 7.2; 10 µM DNA; compound 5 eq
[10] = cacodylate, compound 5 µM (25 eq)

Row | SMILES | ΔTm [3] [°C] | binding [4] | ΔTm [8] [°C] | ΔTm [9] [°C] | binding ([1]; topology maintained) | also measured
1 | C[n+]1cc(NC(=O)c2cccc(C(=O)Nc3c[n+](C)cc4ccccc34)n2)c2ccccc2c1 | 14.9 ± 0.2 | yes | – | – | – | binding ([1]; hybrid to antiparallel switch): yes; ΔTm ([2]; potassium cacodylate, compound 25 eq (5 µM)): 22.7 ± 0.2 °C
2 | C[n+]1cc(NC(=O)c2cccc(C(=O)Nc3cc4ccccc4[n+](C)c3)n2)cc2ccccc21 | – | – | > 40 | > 40 | – | binding ([1]; hybrid to parallel switch): yes; ΔTm ([5]; potassium cacodylate, compound 5 eq (1 µM)): 35.6 ± 0.3 °C; binding [6]: yes; ΔTm ([7]; compound 5 eq (1 µM)): 6.5 ± 0.1 °C
3 | C[n+]1ccc(NC(=O)c2cccc(C(=O)Nc3cc[n+](C)c4ccccc34)n2)c2ccccc21 | – | yes | – | – | yes | –
4 | C[n+]1ccc2c(NC(=O)c3cccc(C(=O)Nc4cccc5c[n+](C)ccc45)n3)cccc2c1 | 4.4 ± 0.2 | yes | 5.3 ± 0.1 | 12.2 ± 0.2 | yes | ΔTm ([7]; compound 25 eq (5 µM)): 1.8 ± 0.2 °C
5 | O=C(Nc1ccc2ccccc2n1)c1cccc(C(=O)Nc2ccc3ccccc3n2)n1 | – | – | – | – | – | ΔTm [2, 10]: < 0.5 °C
6 | O=C(Nc1cncc2ccccc12)c1cccc(C(=O)Nc2cncc3ccccc23)n1 | – | – | – | – | – | ΔTm [5, 10]: < 0.5 °C
